From EP3722296B1, “DIHYDRONAPHTHYRIDINES AND RELATED COMPOUNDS USEFUL AS KINASE INHIBITORS FOR THE TREATMENT OF PROLIFERATIVE DISEASES” (Deciphera Pharmaceuticals, LLC, priority 2012, dated 2013) come the findings set out here.

The target in one test is T1, c-KIT T670I kinase (Homo sapiens, UniProt P10721, T670I).
T1 construct: The construct contains residues T544-V976 of cKit; GST (N); TEV cleavage site (internal); purchased deCODE Biostructures
In words: c-KIT T670I kinase assay. Type of test: biochemical. The conditions noted are these: enzymatic assay. In outline:
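Enzyme: GST-fused, N-terminally tagged cKit bearing T670I, with TEV cleavage site. Reaction started by mixing compound dilutions with reaction mix; activity read continuously over 5 h at 30 °C as loss of 340 nm absorbance from NADH consumption.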

In the next test the test system is Phospho-KIT (Tyr719). In words: GIST48 KIT Western Blot. Format: cell-based. The settings on record: GIST48 cells, 4 hours, serum-free medium; read-out: pKIT suppression by western blot analysi GIST48. In outline: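 Phospho-KIT (Tyr719) was immunoblotted on PVDF and imaged in fluorescence mode after ECL Plus, with stripping and reprobing for total KIT. IC50 values were derived from the blot signals.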

The next test has as its target c-KIT kinase (Homo sapiens, UniProt P10721). In words: c-KIT kinase Assay. The settings on record: enzymatic assay, ATP 200 µM; read-out: KIT (wt) IC50. Format: biochemical. Set-up: cKIT residues T544-V976; GST (N); TEV cleavage site (internal); purchased deCODE Biostructures. In outline: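 This continuous spectrophotometric assay tracked c-KIT kinase turnover through NADH consumption at 340 nm, recorded for 2 hours at 30 °C. The enzyme construct from deCODE Biostructures carried an N-terminal tag, a GST-fusion sequence and a TEV cleavage site. Percent inhibition came from reaction rates over 0 to 1 h relative to a no-compound control, and IC50 values were derived with GraphPad Prism.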

A further test concerns the target T2, c-KIT D816H kinase (Homo sapiens, UniProt P10721, D816H).
T2 construct: The construct contains residues T544-V976 of cKit; GST (N); TEV cleavage site (internal); purchased deCODE Biostructures
In words: c-KIT D816H Kinase Assay. Type of test: biochemical. The conditions noted are these: enzymatic assay, ATP 200 µM. In outline: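 Mutant cKit enzyme, expressed as a GST-fusion construct carrying an N-terminal tag and TEV site, was mixed with serially diluted compound to start reactions. Activity tracked via NADH consumption, read continuously at 340 nm over 6 hours at 30 °C.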

The target in the next test is T3, c-KIT V654A kinase (Homo sapiens, UniProt P10721, V654A).
T3 construct: residues T544-V976 with N-terminal GST fusion; purchased deCODE Biostructures
T3 sequence (P10721 544-976 V654A): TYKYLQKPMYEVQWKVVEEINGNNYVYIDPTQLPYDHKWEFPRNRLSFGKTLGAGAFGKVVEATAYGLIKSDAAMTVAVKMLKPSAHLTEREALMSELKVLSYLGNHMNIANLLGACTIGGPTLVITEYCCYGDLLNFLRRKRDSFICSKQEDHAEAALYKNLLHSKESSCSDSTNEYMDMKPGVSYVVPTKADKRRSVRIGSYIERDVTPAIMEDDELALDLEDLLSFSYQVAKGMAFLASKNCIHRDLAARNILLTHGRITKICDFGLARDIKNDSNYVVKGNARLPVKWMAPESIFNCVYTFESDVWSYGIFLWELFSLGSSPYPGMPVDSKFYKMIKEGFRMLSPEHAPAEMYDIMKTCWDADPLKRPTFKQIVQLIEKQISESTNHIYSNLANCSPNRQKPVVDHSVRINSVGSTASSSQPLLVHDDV
In words: c-KIT V654A Kinase Assay. Type of test: biochemical. The settings on record: enzymatic assay, ATP 200 µM. In outline: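 Kinase activity tracked by coupled NADH consumption, monitored continuously at 340 nm over 6 h at 30 °C after serially diluted compound was mixed in to start inhibition. Enzyme used was a GST-fused, N-terminally tagged cKIT T544–V976 construct with a TEV cleavage site.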

T2 sequence (P10721 544-976 D816H): as the sequence (P10721 544-976 V654A) above, with A111V, D273H counted along it
c-KIT kinase, sequence (P10721 544-976): as the sequence (P10721 544-976 V654A) above, with A111V counted along it
T1 sequence (P10721 544-976 T670I): as the sequence (P10721 544-976 V654A) above, with A111V, T127I counted along it

On to `CCn1c(=O)c(-c2cc(NC(=O)Nc3ccccc3)c(F)cc2Cl)cc2cnc(NC(=O)OC)cc21` [Example 73, methyl (3-(2-chloro-4-fluoro-5-(3-phenylureido)phenyl)-1-ethyl-2-oxo-1,2-dihydro-1,6-naphthyridin-7-yl)carbamate], for which the IC50 on c-KIT T670I kinase, in the test with Phospho-KIT (Tyr719), on c-KIT kinase, at c-KIT D816H kinase and on c-KIT V654A kinase was 10 to 100 nM throughout.
Take `CNc1cc2c(cn1)cc(-c1cc(NC(=O)Nc3cccc(F)c3)c(F)cc1Cl)c(=O)n2C(C)C` [Example 77, 1-(4-chloro-2-fluoro-5-(1-isopropyl-7-(methylamino)-2-oxo-1,2-dihydro-1,6-naphthyridin-3-yl)phenyl)-3-(3-fluorophenyl)urea]: the IC50 at c-KIT T670I kinase is 100 to 1000 nM; in the test on Phospho-KIT (Tyr719), 10 to 100 nM; at c-KIT kinase, less than 10 nM; at c-KIT D816H kinase it was 10 to 100 nM; on c-KIT V654A kinase it was 10 to 100 nM.
Turning to `CCn1c(=O)c(-c2cc(NC(=O)Nc3ccccc3)c(F)cc2Cl)cc2cnc(NC(=O)N3CC(O)C3)cc21` [Example 81, N-(3-(2-chloro-4-fluoro-5-(3-phenylureido)phenyl)-1-ethyl-2-oxo-1,2-dihydro-1,6-naphthyridin-7-yl)-3-hydroxyazetidine-1-carboxamide], the IC50 is 10 to 100 nM at c-KIT T670I kinase; 10 to 100 nM in the test with Phospho-KIT (Tyr719); less than 10 nM on c-KIT kinase; less than 10 nM on c-KIT D816H kinase; 10 to 100 nM on c-KIT V654A kinase.
`CCn1c(=O)c(-c2cc(NC(=O)Nc3ccc(F)c(CN4CCN(C)CC4)c3)c(F)cc2Cl)cc2cnc(NC)cc21` [Example 87, 1-(4-chloro-5-(1-ethyl-7-(methylamino)-2-oxo-1,2-dihydro-1,6-naphthyridin-3-yl)-2-fluorophenyl)-3-(4-fluoro-3-((4-methylpiperazin-1-yl)methyl)phenyl)urea]: the IC50 was 10 to 100 nM on c-KIT T670I kinase; 10 to 100 nM in the test with Phospho-KIT (Tyr719); less than 10 nM at c-KIT kinase; 10 to 100 nM at c-KIT D816H kinase; 100 to 1000 nM on c-KIT V654A kinase.
Turning to `CCn1c(=O)c(-c2cc(NC(=O)Nc3ccccc3)c(F)cc2C)cc2cnc(NC(=O)N(C)C)cc21` [Example 101, 3-(1-ethyl-3-(4-fluoro-2-methyl-5-(3-phenylureido)phenyl)-2-oxo-1,2-dihydro-1,6-naphthyridin-7-yl)-1,1-dimethylurea], the IC50 is 10 to 100 nM at c-KIT T670I kinase; more than 1000 nM with Phospho-KIT (Tyr719); 10 to 100 nM at c-KIT kinase; 10 to 100 nM at c-KIT D816H kinase; 10 to 100 nM at c-KIT V654A kinase.
Take `CCn1c(=O)c(-c2cc(NC(=O)Nc3ccccc3)c(F)cc2Cl)cc2cnc(NC(=O)N3CC(N(C)C)C3)cc21` [Example 102, N-(3-(2-chloro-4-fluoro-5-(3-phenylureido)phenyl)-1-ethyl-2-oxo-1,2-dihydro-1,6-naphthyridin-7-yl)-3-(dimethylamino)azetidine-1-carboxamide]: the IC50 on c-KIT T670I kinase was 10 to 100 nM; with Phospho-KIT (Tyr719) it was 10 to 100 nM; at c-KIT kinase, less than 10 nM; on c-KIT D816H kinase, 10 to 100 nM; at c-KIT V654A kinase, 10 to 100 nM.
